Assay results published in patent US20240216357A1 (SICHUAN HUIYU PHARMACEUTICAL CO., LTD., priority 2021, published 2024).
Structures can show the parent of a compound that is named as a salt. Where two headings read alike, the source gives them in different places.

Legend:
[1] = target: LSD1 (Homo sapiens (Human), UniProt O60341); assay: LSD1 enzyme activity detection (HTRF); type: biochemical; settings: read-out: Inhibition of enzymatic activity of LSD1 IC50
[2] = Caco-2 permeability test; settings: human, Caco-2
[3] = tested on: NCI-H1417 cells; assay: In vitro cell proliferation detection (CellTiter-Glo, 7 days); type: cell-based; settings: Homo sapiens, 168 h; NCI-H1417 cells, 7 days, CellTiter-Glo; read-out: NCI-H1417 proliferation inhibition IC50
[4] = target: voltage-gated potassium ion channel hERG (Homo sapiens (Human), UniProt Q12809); assay: hERG inhibition test (manual patch-clamp)
[5] = Rat PK test (IV and PO); on Cmax: test concentration or dose not given here
[6] = read-out: hERG IC50, manual patch-clamp

voltage-gated potassium ion channel hERG, sequence (Q12809 whole entry): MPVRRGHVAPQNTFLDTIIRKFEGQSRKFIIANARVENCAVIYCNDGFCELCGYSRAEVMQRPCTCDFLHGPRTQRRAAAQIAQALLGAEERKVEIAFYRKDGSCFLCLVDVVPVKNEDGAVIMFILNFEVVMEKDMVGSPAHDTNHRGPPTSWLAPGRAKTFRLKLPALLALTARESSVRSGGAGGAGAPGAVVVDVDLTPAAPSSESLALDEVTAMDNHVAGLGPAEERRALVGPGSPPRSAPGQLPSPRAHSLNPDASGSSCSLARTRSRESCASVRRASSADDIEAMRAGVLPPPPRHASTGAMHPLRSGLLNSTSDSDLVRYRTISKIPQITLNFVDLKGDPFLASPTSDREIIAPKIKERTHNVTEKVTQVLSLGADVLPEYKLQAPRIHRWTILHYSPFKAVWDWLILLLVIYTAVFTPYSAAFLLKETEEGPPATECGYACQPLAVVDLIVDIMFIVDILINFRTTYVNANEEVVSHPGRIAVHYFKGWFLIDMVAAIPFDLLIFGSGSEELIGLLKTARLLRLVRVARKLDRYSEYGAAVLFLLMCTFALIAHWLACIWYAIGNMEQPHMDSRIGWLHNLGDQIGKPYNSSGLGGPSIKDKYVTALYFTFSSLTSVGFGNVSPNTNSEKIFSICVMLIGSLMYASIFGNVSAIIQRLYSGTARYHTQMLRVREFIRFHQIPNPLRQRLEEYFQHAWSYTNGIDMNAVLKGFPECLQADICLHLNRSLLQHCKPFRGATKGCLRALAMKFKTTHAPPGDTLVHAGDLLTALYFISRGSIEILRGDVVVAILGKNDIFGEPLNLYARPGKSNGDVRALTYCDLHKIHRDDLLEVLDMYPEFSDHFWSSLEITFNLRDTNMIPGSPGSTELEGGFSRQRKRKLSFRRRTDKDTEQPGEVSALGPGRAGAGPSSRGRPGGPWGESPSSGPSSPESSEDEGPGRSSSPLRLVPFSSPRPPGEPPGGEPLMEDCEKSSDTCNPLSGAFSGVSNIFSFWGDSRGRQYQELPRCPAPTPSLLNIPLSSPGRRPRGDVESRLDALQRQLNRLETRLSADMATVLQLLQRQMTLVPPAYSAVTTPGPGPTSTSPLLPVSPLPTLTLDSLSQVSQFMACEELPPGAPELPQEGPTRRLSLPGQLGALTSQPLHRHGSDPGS

SMILES: CS(=O)(=O)N1CCN(C(=O)c2cc(CN[C@@H]3C[C@H]3c3ccc(F)cc3)nc(-c3ccc(-n4cccn4)cc3)n2)CC1 [Example 2, (2-(4-(1H-pyrazol-1-yl)phenyl)-6-((((1R,2S)-2-(4-fluorophenyl)cyclopropyl)amino)methyl)pyrimidin-4-yl)(4-(methylsulfonyl)piperazin-1-yl)methanone]
- IC50 ([1]; HTRF, H3K4me1 substrate): 17.9 ± 3.2 nM
- Papp A→B at 120 min [2]: 15 ×10⁻⁶ cm/s
- Papp B→A at 120 min [2]: 15 ×10⁻⁶ cm/s
- efflux ratio at 120 min [2]: 1
- IC50 [3]: 0.73 nM
- IC50 [4, 6]: 2580 nM

SMILES: COc1ccc(-c2c(O)cc(N3CCC(N)CC3)nc2-c2ccc(C#N)c(F)c2)cc1F [Example 11, 4-(6-(4-aminopiperidin-1-yl)-3-(3-fluoro-4-methoxyphenyl)-4-hydroxypyridin-2-yl)-2-fluoroben zonitrile formate]
- IC50 ([1]; HTRF, H3K4me1 substrate): 2.9 ± 0.28 nM
- Papp A→B at 120 min [2]: 3.66 ×10⁻⁶ cm/s
- Papp B→A at 120 min [2]: 27.2 ×10⁻⁶ cm/s
- efflux ratio at 120 min [2]: 7.42
- IC50 [3]: 13 nM
- IC50 [4, 6]: > 30000 nM

SMILES: Cc1noc2cc(-c3c(O)cc(N4CCC(N)CC4)nc3-c3ccc(C#N)c(F)c3)c(F)cc12 [Example 26, 4-(6-(4-aminopiperidin-1-yl)-3-(5-fluoro-3-methylbenzo[d]isoxazol-6-yl)-4-hydroxypyridin-2-yl)-2-fluorobenzonitrile]
- IC50 ([1]; HTRF, H3K4me1 substrate): 3.67 ± 0.72 nM
- IC50 [3]: 7.45 nM
- IC50 [4, 6]: > 30000 nM

SMILES: COc1cc(F)c(-c2c(O)cc(N3CCC(N)CC3)nc2-c2ccc(C#N)c(F)c2)cc1F [Example 41, 4-(6-(4-aminopiperidin-1-yl)-3-(2,5-difluoro-4-methoxyphenyl)-4-hydroxypyridin-2-yl)-2-fluorobenzonitrile hydrochloride]
- IC50 ([1]; HTRF, H3K4me1 substrate): 22.1 nM
- IC50 [3]: 7.93 nM
- IC50 [4, 6]: > 30000 nM

SMILES: COc1ccc(-c2c(O)cc(N3CCC(C)(N)CC3)nc2-c2ccc(C#N)c(F)c2)cc1F [Example 50]
- IC50 ([1]; HTRF, H3K4me1 substrate): 7 ± 2.1 nM
- IC50 [3]: 33.2 nM
- IC50 [4, 6]: 17600 nM

SMILES: COc1ccc(-c2c(OC)cc(N3CCC(N)CC3)nc2-c2ccc(C#N)c(F)c2)cc1O [Example 89, 4-(6-(4-aminopiperidin-1-yl)-3-(3-hydroxy-4-methoxyphenyl)-4-methoxypyridin-2-yl)-2-fluorobenzonitrile]
- IC50 ([1]; HTRF, H3K4me1 substrate): 0.46 ± 0.11 nM
- Cl ([5]; Male SD rats): 58.3 mL/min/kg
- F ([5]; Male SD rats, PO vs IV): 13.1%
- AUC(0-inf) ([5]; male, SD, rat, plasma): 208 ng·h/mL
- Cmax ([5]; male, SD, rat, plasma): 22.5 ng/mL
- half-life ([5]; male, SD, rat, plasma): 6.26 h
- Vd ([5]; male, SD, rat, plasma, intravenous): 13 L/kg
- IC50 [3]: 1 nM
- IC50 [4, 6]: 13800 nM

SMILES: COc1cc(N2CCC(N)CC2)nc(-c2ccc(C#N)c(F)c2)c1-c1cc2onc(C)c2cc1F [Example 90, 4-(6-(4-aminopiperidin-1-yl)-3-(5-fluoro-3-methylbenzo[d]isoxazol-6-yl)-4-methoxypyridin-2-yl)-2-fluorobenzonitrile]
- IC50 ([1]; HTRF, H3K4me1 substrate): 7.48 nM
- IC50 [3]: 5.34 nM
- IC50 [4, 6]: 4620 nM

SMILES: COc1cc(N2CCC(N)CC2)nc(-c2ccc(C#N)c(F)c2)c1-c1cc(O)c(F)c(F)c1 [Example 92, 4-(6-(4-aminopiperidin-1-yl)-3-(3,4-difluoro-5-hydroxyphenyl)-4-methoxypyridin-2-yl)-2-fluorobenzonitrile]
- IC50 ([1]; HTRF, H3K4me1 substrate): 8.2 ± 0.1 nM
- IC50 [3]: 8.78 nM
- IC50 [4, 6]: 10900 nM

SMILES: COc1cc(N2CCC(N)CC2)nc(-c2ccc(C#N)c(F)c2)c1-c1ccc(C)c(O)c1 [Example 95, 4-(6-(4-aminopiperidin-1-yl)-3-(3-hydroxy-4-methylphenyl)-4-methoxypyridin-2-yl)-2-fluorobenzonitrile hydrochloride]
- IC50 ([1]; HTRF, H3K4me1 substrate): 0.16 ± 0.11 nM
- IC50 [3]: 0.467 nM
- IC50 [4, 6]: 6920 nM

SMILES: COc1cc(N2CCC(N)CC2)nc(-c2ccc(C#N)c(F)c2)c1-c1ccc(Cl)c(O)c1 [Example 98, 4-(6-(4-aminopiperidin-1-yl)-3-(4-chloro-3-hydroxyphenyl)-4-methoxypyridin-2-yl)-2-fluorobenzonitrile hydrochloride]
- IC50 [3]: 0.604 nM
- IC50 [4, 6]: 5850 nM

SMILES: COc1ccc(-c2c(OC(C)C)cc(N3CCC(N)CC3)nc2-c2ccc(C#N)c(F)c2)cc1O [Example 104, 4-(6-(4-aminopiperidin-1-yl)-3-(3-hydroxy-4-methoxyphenyl)-4-isopropoxypyridin-2-yl)-2-fluor obenzonitrile]
- IC50 ([1]; HTRF, H3K4me1 substrate): 0.7 ± 0.02 nM
- IC50 [3]: 1.76 nM
- IC50 [4]: 6700 nM

SMILES: COc1ccc(-c2c(OC3CCCC3)cc(N3CCC(N)CC3)nc2-c2ccc(C#N)c(F)c2)cc1O [Example 105, 4-(6-(4-aminopiperidin-1-yl)-4-(cyclopentyloxy)-3-(3-hydroxy-4-methoxyphenyl)pyridin-2-yl)-2-fluorobenzonitrile]
- IC50 ([1]; HTRF, H3K4me1 substrate): 2.3 ± 0.04 nM
- IC50 [3]: 5.45 nM
- IC50 [4, 6]: 5600 nM

SMILES: COc1ccc(-c2c(-c3ccc(C#N)c(F)c3)nc(N3CCC(N)CC3)n3ccnc23)cc1F [Example 117, 4-(5-(4-aminopiperidin-1-yl)-8-(3-fluoro-4-methoxyphenyl)imidazolo[1,2-c]pyrimidin-7-yl]-2-fl uorobenzonitrile hydrochloride]
- IC50 [1]: 0.46 ± 0.02 nM
- IC50 [3]: 3.76 nM
- IC50 [4, 6]: 7190 nM

SMILES: COc1ccc(-c2c(-c3ccc(C#N)c(F)c3)nc(N3CCC(N)CC3)n3ccnc23)cn1 [Example 121, 4-(5-(4-aminopiperidin-1-yl)-8-(6-methoxypyridin-3-yl)imidazolo [1,2-c]pyrimidin-7-yl)-2-fluorobenzonitrile]
- IC50 ([1]; HTRF, H3K4me1 substrate): 3.15 ± 1.03 nM
- IC50 [3]: 8.38 nM
- IC50 [4, 6]: 6040 nM

SMILES: COc1ccc(-c2c(-c3ccc(C#N)c(F)c3)nc(N3CCC(N)CC3)n3ccnc23)cc1O [Example 124, 4-(5-(4-aminopiperidin-1-yl)-8-3-hydroxy-4-(methoxyphenyl)imidazolo[1,2-c]pyrimidin-7-yl)-2-fluorobenzonitrile]
- IC50 ([1]; HTRF, H3K4me1 substrate): 0.08 ± 0.03 nM
- Papp A→B at 120 min [2]: 1.73 ×10⁻⁶ cm/s
- Papp B→A at 120 min [2]: 24.7 ×10⁻⁶ cm/s
- efflux ratio at 120 min [2]: 14.3
- IC50 [3]: 0.163 nM
- IC50 [4, 6]: > 30000 nM

SMILES: CC(C)(O)Cc1ccc(-c2c(-c3ccc(C#N)c(F)c3)nc(N3CCC(N)CC3)n3ccnc23)c(F)c1 [Example 132, 4-(5-(4-aminopiperidin-1-yl)-8-(2-fluoro-4-(2-hydroxy-2-methylpropyl)phenyl)imidazolo[1,2-c]pyrimidin-7-yl)-2-fluorobenzonitrile hydrochloride]
- IC50 ([1]; HTRF, H3K4me1 substrate): 5.62 nM
- IC50 [3]: 11.9 nM
- IC50 [4, 6]: > 30000 nM

SMILES: N#Cc1ccc(-c2nc(N3CCC(N)CC3)n3ccnc3c2-c2ccc(OC(F)(F)F)c(O)c2)cc1F [Example 133, 4-(5-(4-aminopiperidin-1-yl)-8-(3-hydroxy-4-(trifluoromethoxy)phenyl)imidazolo [1,2-c]pyrimidin-7-yl)-2-fluorobenzonitrile hydrochloride]
- IC50 ([1]; HTRF, H3K4me1 substrate): 0.54 ± 0.32 nM
- IC50 [3]: 1.04 nM
- IC50 [4, 6]: 7170 nM

SMILES: CC(C)(O)Cc1ccc(-c2c(-c3ccc(C#N)c(F)c3)nc(N3CCC(N)CC3)n3ccnc23)cc1F [Example 134, 4-(5-(4-aminopiperidin-1-yl)-8-(3-fluoro-4-(2-hydroxy-2-methylpropyl)phenyl)imidazolo [1,2-c]pyrimidin-7-yl)-2-fluorobenzonitrile]
- IC50 ([1]; HTRF, H3K4me1 substrate): 6.1 ± 1.9 nM
- IC50 [3]: 7.25 nM
- IC50 [4, 6]: 18400 nM

SMILES: COc1ccc(-c2c(-c3ccc(C#N)c(F)c3)nc(N3CCC(N)CC3)n3ccnc23)cc1C#N [Example 135, 4-(5-(4-aminopiperidin-1-yl)-8-(3-cyano-4-methoxyphenyl)imidazolo[1,2-c]pyrimidin-7-yl)-2-fluorobenzonitrile]
- IC50 ([1]; HTRF, H3K4me1 substrate): 9.6 ± 2.7 nM
- IC50 [3]: 8.19 nM
- IC50 [4, 6]: 23400 nM

SMILES: Cc1ccc(-c2c(-c3ccc(C#N)c(F)c3)nc(N3CCC(N)CC3)n3ccnc23)cc1O [Example 136, 4-(5-(4-aminopiperidin-1-yl)-8-(3-hydroxy-4-methylphenyl)imidazolo[1,2-c]pyrimidin-7-yl)-2-fluorobenzonitrile hydrochloride]
- IC50 ([1]; HTRF, H3K4me1 substrate): 0.06 ± 0.02 nM
- IC50 [3]: 0.176 nM
- IC50 [4, 6]: > 30000 nM

SMILES: N#Cc1ccc(-c2nc(N3CCC(N)CC3)n3ccnc3c2-c2ccc(F)c(O)c2)cc1F [Example 137, 4-(5-(4-aminopiperidin-1-yl)-8-(4-fluoro-3-hydroxyphenyl)imidazolo[1,2-c]pyrimidin-7-yl]-2-fluorobenzonitrile]
- IC50 ([1]; HTRF, H3K4me1 substrate): 0.07 ± 0.05 nM
- IC50 [3]: 0.553 nM
- IC50 [4, 6]: > 10000 nM

SMILES: CS(=O)(=O)N1CCN(C(=O)c2cc(CN[C@@H]3C[C@H]3c3ccc(F)cc3)nc(-c3ccc(-n4ccnn4)cc3)n2)CC1 [Example 228]
- IC50 ([1]; HTRF, H3K4me1 substrate): 22.9 nM
- IC50 [3]: 4.68 nM
- IC50 [4, 6]: 7210 nM

SMILES: O=C(c1cc(CN[C@@H]2C[C@H]2c2ccc(F)cc2)nc(-c2ccc(-n3cccn3)cc2)n1)N1CCC(F)(F)CC1 [Example 230]
- IC50 ([1]; HTRF, H3K4me1 substrate): 47.9 nM
- IC50 [3]: 3.92 nM
- IC50 [4, 6]: 4990 nM

SMILES: O=C(NC1CCOCC1)c1cc(CN[C@@H]2C[C@H]2c2ccc(F)cc2)nc(-c2ccc(-n3cccn3)cc2)n1 [Example 233]
- IC50 ([1]; HTRF, H3K4me1 substrate): 7.2 ± 2.3 nM
- IC50 [3]: 9.36 nM
- IC50 [4, 6]: 4470 nM

SMILES: Cc1ccc(-c2nc(CN[C@@H]3C[C@H]3c3ccc(F)cc3)cc(C(=O)NC3CCOCC3)n2)cc1O [Example 236]
- IC50 ([1]; HTRF, H3K4me1 substrate): 21.7 nM
- Papp A→B at 120 min [2]: 1.44 ×10⁻⁶ cm/s
- Papp B→A at 120 min [2]: 3.99 ×10⁻⁶ cm/s
- efflux ratio at 120 min [2]: 2.76
- IC50 [3]: 2.82 nM
- IC50 [4, 6]: 5400 nM

SMILES: COc1ccc(-c2c(-c3ccc(C#N)c(F)c3)nc(N3CCC(N)CC3)c3[nH]ncc23)cc1O [Example 287, 4-(7-(4-aminopiperidin-1-yl)-4-(3-hydroxy-4-methoxyphenyl)-1H-pyrazolo[3,4-c]pyridin-5-yl)-2-fluorobenzonitrile hydrochloride]
- IC50 ([1]; HTRF, H3K4me1 substrate): 0.265 nM
- IC50 [3]: 5.97 nM

SMILES: Cc1noc2cc(-c3c(-c4ccc(C#N)c(F)c4)nc(N4CCC(N)CC4)c4[nH]ncc34)c(F)cc12 [Example 288, 4-(7-(4-aminopiperidin-1-yl)-4-(5-fluoro-3-methylbenzo[d]isoxazol-6-yl)-1H-pyrazole[3,4-c]pyridin-5-yl)-2-fluorobenzonitrile hydrochloride]
- IC50 ([1]; HTRF, H3K4me1 substrate): 0.591 nM
- IC50 [3]: 6.33 nM
